What was measured:
[1] = system: GFRα1-overexpressing MG-63 clone #4; test: Colony-forming assay in the presence of cisplatin; format: cell-based, human; conditions: cisplatin 20 μM 10 days; 3-MA (10 μM), Baf (100 nM), CQ (30 μg/ml)
From the text: FIG. 3. […] Scale bar, 20 μm. […] Scale bar, 20 μm. […] Scale bar, 20 μm.

[2] = system: LC3-II in GFRα1-overexpressing MG-63 cells; test: Immunoblot of LC3-II in GFRα1-overexpressing cells; format: cell-based, human; conditions: 3-MA (10 μM) or Baf (100 nM)
Method: FIG. 3. GFRα1-induced autophagy enhances the chemoresistance of osteosarcoma cells induced by cisplatin. (a) Control and GFRα1-deficient MG-63 cells were transiently transfected with a mRFP-GFP tandem fluorescent-tagged LC3 (mRFP-GFP-LC3) vector and then treated with cisplatin (20μM) for 24 hr. Left, representative images of RFP-LC3 and GFP-LC3 puncta. Scale bar, 20 μm. Right, quantitative analysis of the number of yellow puncta and the number of RFP-LC3 puncta in the combined images. The values are represented as a mean±s.d.m. (n=3). ** denotes p<0.05 by t-test. (b) Control and GFRα1-deficient MG-63 cells were treated with cisplatin (20 μM) for 24 hr and then stained with acridine orange. […] Bottom, quantitative analysis of the number of AVOs. […] (c) Control and GFRα1-deficient MG-63 cells were treated with cisplatin (20 μM) for 24 hr and then analyzed by TEM. Top, representative images of autophagic vacuoles (yellow arrows) detected after cisplatin treatment in control MG-63 cells. […] Bottom, quantitative analysis of the number of autophagic vacuoles. […] (e) Quantitative analysis of the number of yellow puncta and the number of RFP-LC3 puncta in control and GFRα1-overexpressing MG-63 cells. […] Bottom, quantitative analysis of the number of AVOs. […] (h) Control and GFRα1-overexpressing MG-63 cells were treated with cisplatin (20 μM) for 24 hr and then analyzed by TEM. […]

Cn1cnc(N)c2ncnc1-2 [3-MA, 3-methyladenine]
number of colonies [1]: effectively reduced
level of LC3-II expression [2]: reduced

— patent US20180171411A1, “GFRalpha1 AS A BIOMARKER FOR CISPLATIN-INDUCED CHEMORESISTANCE AND METASTASIS” (THE BOARD OF REGENTS OF THE UNIVERSITY OF TEXAS SYSTEM, priority 2015, published 2018)
